Experimental data reported in patent publication US11555009B2, “2-(substituted benzene matrix) aromatic formate FTO inhibitor, preparation method therefor, and applications thereof” (SHANGHAI INSTITUTE OF MATERIA MEDICA, CHINESE ACADEMY OF …, priority 2017, dated 2023).
Like-named read-outs stand apart in the source and are kept apart here.

How the values were obtained:
[1] = tested on: human bone marrow rhabdomyosarcoma cell line (RH30); test: MTS cytotoxicity on RH30 cells; type: cell-based; details: for inhibition at 50 µM / Inhibition rate (human bone marrow rhabdomyosarcoma cell RH30): 72 h, 50 μM; for inhibition at 50 µM: read-out: Inhibition rate (human bone marrow rhabdomyosarcoma cell RH30)
Procedure: (§1) The following was a study of the cytotoxicity study of compound of 2-(substituted phenylhetero)aromatic formic acid of formula (I) and its derivatives as FTO inhibitors on solid tumors including human small cell lung cancer cell lines (SCLC-21H), human bone marrow rhabdomyosarcoma cell line (RH30) and pancreatic cancer cell Line (KP3):
(§2) SCLC-21H, RH30 and KP3 solid tumor cell lines were cultivated separately, and seeded at 5000 cells per well in 96 well plates. The cells were cultured until the cells were adherent, and different compounds were added and the cultivation was continued for 72 hours. 10 uL of MTS solution was directly added and the mixture was incubated for 4 h, and the absorbance was measured at 490 nm. The inhibition rate was calculated by using the DMSO group as a control.

[2] = tested on: pancreatic cancer cell Line (KP3); test: MTS cytotoxicity on KP3 cells; type: cell-based
Procedure: as §1, §2

[3] = tested on: human small cell lung cancer cell lines (SCLC-21H); test: MTS cytotoxicity on SCLC-21H cells; type: cell-based; details: for inhibition at 50 µM / Inhibition rate (human small cell lung cancer SCLC-21H): 72 h, 50 μM; for inhibition at 50 µM: read-out: Inhibition rate (human small cell lung cancer SCLC-21H); for IC50: read-out: Cytotoxicity on cell line SCLC (IC50)
Procedure: as §1, §2

[4] = target: FTO (Homo sapiens (Human), UniProt Q9C0B1); test: FTO enzyme inhibition (m6A dsDNA substrate, DpnII digestion, gel readout); type: biochemical; details: for inhibition at 50 µM: read-out: Inhibition rate; for Inhibition rate: in vitro inhibition rate on FTO, compound at 50 μM
Sequence of FTO (Q9C0B1 whole entry): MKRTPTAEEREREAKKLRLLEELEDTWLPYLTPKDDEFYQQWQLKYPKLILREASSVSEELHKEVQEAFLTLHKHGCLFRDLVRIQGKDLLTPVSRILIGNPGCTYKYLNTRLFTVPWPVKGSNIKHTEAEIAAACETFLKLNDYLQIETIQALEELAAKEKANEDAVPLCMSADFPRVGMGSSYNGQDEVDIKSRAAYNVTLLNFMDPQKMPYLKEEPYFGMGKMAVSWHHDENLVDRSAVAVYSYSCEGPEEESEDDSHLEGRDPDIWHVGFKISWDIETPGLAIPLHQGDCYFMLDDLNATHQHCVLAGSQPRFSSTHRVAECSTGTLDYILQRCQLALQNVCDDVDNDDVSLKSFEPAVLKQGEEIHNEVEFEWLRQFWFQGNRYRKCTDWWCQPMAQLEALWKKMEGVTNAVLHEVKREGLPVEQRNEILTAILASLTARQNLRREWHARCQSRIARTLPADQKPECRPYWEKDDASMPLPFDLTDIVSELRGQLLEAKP
Procedure: High purity FTO protein was obtained by nickel column affinity chromatography purification.
After incubation at room temperature for 2 hrs, the reaction system was then slowly heated to 65° C. to inactivate, and 1 μM 39 nt of antisense strand DNA was added to anneal, thereby forming double strands. […] After Gel-Red dyeing, photos were taken with gel imaging system. The obtained band was subjected to gray scale reading to obtain inhibition rate.

Structure (SMILES)	Inhibition rate [4] [%]	IC50 [1] [µM]	IC50 [2] [µM]	IC50 [3] [µM]	Inhibition rate (human small cell lung cancer SCLC-21H) [3] [%]	Inhibition rate (human bone marrow rhabdomyosarcoma cell RH30) [1] [%]	also measured
CCN(CC)CCNC(=O)c1ccccc1Nc1c(Cl)cc(-c2cc(F)cc(F)c2)cc1Cl [Compound 83]	–	4.7	4.7	–	–	–	–
Cc1noc(C)c1-c1cc(Cl)c(Nc2ccccc2C(=O)NO)c(Cl)c1 [Compound 25]	–	–	–	–	–	–	inhibition at 50 µM ([3]; Homo sapiens, SCLC-21H): 78%; IC50 ([3]; Homo sapiens, SCLC-21H): 2.4 µM; IC50 [4]: < 1 µM; inhibition at 50 µM [4]: 46%; IC50 ([1]; Homo sapiens, Rh30): 2.9 µM; inhibition at 50 µM ([1]; Homo sapiens, Rh30): 75%; IC50 ([2]; Pancreatic cancer cell): 2.9 µM
Cc1noc(C)c1-c1cc(F)c(Nc2ccccc2C(=O)NO)c(F)c1 [Compound 39]	90	3.2	2.6	7.3	–	–	IC50 [4]: < 1 µM
CCN(CC)CCNC(=O)c1ccccc1Nc1c(Cl)cc(-c2c(C)noc2C)cc1Cl [Compound 79]	–	2.6	2.6	< 1	80	79	–
Cc1n[nH]c(C)c1-c1cc(Cl)c(Nc2ccccc2C(=O)NO)c(Cl)c1 [Compound 32]	–	5.3	5.6	2.1	70	63	–
CCN(CC)CCNC(=O)c1cccnc1Nc1c(Cl)cc(-c2c(C)noc2C)cc1Cl [Compound 78]	–	14.7	8.7	5.1	–	–	–
Cc1noc(C)c1-c1cc(F)c(Nc2ccccc2C(=O)O)c(F)c1 [Compound 38]	100	9.2	< 1	4.2	–	–	IC50 [4]: < 1 µM
Cc1n[nH]cc1-c1cc(Cl)c(Nc2ccccc2C(=O)NO)c(Cl)c1 [Compound 31]	70	3.6	6.2	7.2	75	70	IC50 [4]: < 5 µM
COc1cc(-c2cc[nH]n2)cc(OC)c1Nc1ccccc1C(=O)O [Compound 42]	79	–	–	–	33	33	–
O=C(NO)c1ccccc1Nc1c(Cl)cc(-c2cn[nH]c2)cc1Cl [Compound 33]	63	4.1	2.2	7.1	83	86	IC50 [4]: < 1 µM
Cc1noc(C)c1-c1cc(Cl)c(Nc2ccccc2C(=O)OCOC(=O)C(C)(C)C)c(Cl)c1 [Compound 87]	–	–	–	–	–	–	inhibition at 50 µM ([3]; Homo sapiens, SCLC-21H): 26%; inhibition at 50 µM [4]: 31%; inhibition at 50 µM ([1]; Homo sapiens, Rh30): 28%

More lines, main results first:

Inhibition rate [4] [%]	Structure (SMILES)	IC50 [1] [µM]	IC50 [2] [µM]	IC50 [3] [µM]	Inhibition rate (human small cell lung cancer SCLC-21H) [3] [%]	Inhibition rate (human bone marrow rhabdomyosarcoma cell RH30) [1] [%]	also measured
29	Cc1noc(C)c1-c1cc(Cl)c(Nc2ccccc2C(=O)NCCCN2CCOCC2)c(Cl)c1 [Compound 82]	1.6	< 1	9.9	–	–	–
29	Cc1noc(C)c1-c1cc(Cl)c(Nc2ccccc2C(=O)NCCN2CCN(C)CC2)c(Cl)c1 [Compound 80]	2	2	< 1	86	82	–
28	O=C(NO)c1cccnc1Nc1c(Cl)cc(-c2ccncc2)cc1Cl [Compound 62]	–	–	–	84	87	–
88	Cc1noc(C)c1-c1cc(Cl)c(Nc2nccnc2C(=O)O)c(Cl)c1 [Compound 65]	–	–	–	52	42	–
67	CCN(CC)CCNC(=O)c1ccccc1Nc1c(Cl)cc(-c2cn[nH]c2)cc1Cl [Compound 81]	1.3	< 1	9.2	83	80	–
100	Cc1n[nH]cc1-c1cc(Cl)c(Nc2ncccc2C(=O)O)c(Cl)c1 [Compound 57]	–	–	–	47	40	–
